Test [1] has as its system cartilage and subchondral bone defect in the trochlear groove. Put plainly: Full-thickness cartilage defect healing with substance P delivery, histological grading. Format: in vivo, rat. The text has this:
Purpose-bred male Wistar rats, were used in this Example. Rats were acclimated to the animal care facility for seven days before use. All rats then undergo general anesthesia for surgical induction of cartilage injury. All rats underwent bilateral surgery. At the time of surgery, miniosmotic pumps were placed for NP treatment. All pumps remained in place throughout the experiment. At various time intervals after the surgery (2, 4 and 6 weeks), the rats were euthanized each joint was harvested for histological analysis.
Cartilage Injury: A […] long incision was made over the patellar tendon and the tendon and surrounding tissue was exposed. A mini-arthrotomy was made and the patella was subluxed (dislocated) to expose the femoral condyles and trochlear groove. A drill was used to create a full thickness (3 mm deep) hole, 0.635 mm in diameter, in the trochlear groove. The patella was then repositioned and the muscle fascia and subcutaneous tissue was closed with a continuous suture pattern, and the skin apposed with skin staples.
Neuropeptide delivery: Substance P (75 pg/100 μl) was infused subcutaneously (0.25 μl/hr) via the implantation of mini-osmotic pumps (Alza Corp. Palo Alto, Calif.). In all rats, neuropeptide infused pumps were implanted in a subcutaneous pocket after induction of general anesthesia. […]

Test [2] has as its system ruptured MCL of a surgical sympathectomy (SS) rat. Put plainly: Local neuropeptide delivery to ruptured MCL of surgical sympathectomy (SS) rats: mechanical testing, histomorphology. Format: in vivo. To be noted: for failure force / ultimate stress / mechanical strength of healing MCL (in words): two weeks of healing; for mechanical strength of healing MCL (in words): local delivery. The text has this:
Surgical Procedure: Thirteen female Wistar rats (306 g to 339 g) were divided into two groups: surgical sympathectomy (SS) or sham control. All rats were anesthetized with isofluorane as described in Example 1. A transperitoneal approach was used. The lower abdomen was shaved and prepared for surgery. A skin incision approximately 25 mm long was made. Fascia and abdominal muscle were incised. Abdominal organs were displaced. With the aid of a dissecting microscope, fascia surrounding the deep muscle tissue was separated (with minimal disruption to the muscle tissue) to expose the post-ganglionic sympathetic nerves. The L1-4 nerves were isolated and transected (with removal of a 5 mm segment of the nerves) in the surgical sympathectomy group only. In both groups, the deep muscle tissue was returned to its initial position and abdominal organs were replaced. Abdominal muscles and skin were closed in two layers with a 3-0 or 4-0 continuous dexon suture. Rats from each group (n=4 SS; n=3 controls) then underwent a complete surgical rupture of the MCL to one knee. The contra-lateral knee underwent sham surgery. […] Two weeks post-surgery, rats were sacrificed using an overdose of pentobarbitone (150 mg/kg).
Local delivery of NPs and NP inhibitors is important to identify the specific roles of individual NPs on healing tissues. An animal model for the local delivery of NPs has been developed and is presented in this Example. Briefly, NP infused mini-osmotic pumps were implanted subcutaneously into the back of rats. A small catheter running from the pump to an intramuscular space above the MCL was secured to the rat.
To test whether autonomic NPs improve healing in SS-ruptured MCLs, three female Wistar rats (193 g to 204 g) were given VIP locally to the MCL. Vasoactive intestinal peptide (75 pg/μl) was infused into a mini-osmotic pump and was delivered to a ruptured MCL of a surgical sympathectomy (SS) rat (see surgical procedure above). Within minutes of surgical intervention, all rats recovered and had normal movement and behavior (grooming, feeding, etc.). […] The results are presented graphically in FIG. 6.
Animal Model and Surgery: Thirty-seven female Wistar rats (199-298 g) were divided into five groups. […] Rats that were designated to receive SP or CGRP underwent bilateral femoral nerve transection (see previous examples). Rats that were designated to receive NPY, VIP, or a combination of NPY and VIP underwent bilateral surgical sympathectomy. Following surgical nerve transection, each rat also underwent bilateral MCL rupture. Neuropeptides were then delivered ruptured MCLs unilaterally. Neuropeptide infused mini-osmotic pumps (Alzet Corp.) were implanted subcutaneously into the back of each rat. A small catheter running from the pump was run to an intramuscular space above the MCL and was secured. To ensure that neuropeptides are delivered directly to the MCL, rhodamine labeled SP was delivered via a catheter to the MCL (n=2 rats).
Within minutes of surgical intervention, all rats recovered and had normal movement and behavior (grooming, feeding, etc.). To test whether autonomic NPs improve healing in SS ruptured MCLs, seven rats were given VIP, seven rats were given NPY, and seven rats were given a combination of VIP and NPY. […]
Mechanical Testing: Mechanical testing was performed as described in the preceding examples. Briefly, animal hind limbs from all groups (n=4 for all groups) were disarticulated at the hip joint and stored at −80° C. until testing. On the day of testing, MCLs including intact femoral and tibial bone sections were excised for ex vivo testing. Ligament thickness and width was measured optically, and MCL area was estimated with elliptical geometry. For strain measurements, optical markers were placed onto the ligament tissue near the insertion sites. […]

Where [3] appears, read: Example 3: VIP 75 pg/μl via mini-osmotic pump to ruptured MCL of SS rat.
Setting [4] is: Example 6: SS rats, bilateral MCL rupture, mini-osmotic pump (NPY 65 pg/100 μl; VIP 100 pg/100 μl; or both).

“Also recorded” adds a separate entry of the source.

On to Substance P [SP], for which the “average cartilage repair score (0 no damage to 24)” value in test [1] (Substance P 75 pg/100 μl, 0.25 μl/hr via mini-osmotic pump, initial two week period, Sellers grading) is reported as 11.9. The “healing of cartilage and subchondral bone (in words)” value in test [1] (full-thickness cartilage defects after two weeks of healing) is “greatly improved healing of both the cartilage and subchondral bone”.

vasoactive intestinal peptide [VIP]: the failure force in test [2] (setting [3]) came to 44.23 N; in test [2] (setting [4]), 44.2±3.1 N. The ultimate stress in test [2] (setting [3]) worked out at 29.63 MPa; in test [2] (setting [4]), 29.6±10.0 MPa. In addition, the “histomorphology (H&E) of healing MCL” value in test [2] (SS rats, VIP or NPY, two weeks) is “more aligned”. In addition, the “mechanical strength of healing MCL (in words)” value in test [2] (SS rats) is recorded as “greater than the strength of uninjured MCLs; also recorded: completely reversed the functional deficits”; in test [2] (SS rats, listed as Vasoactive intestinal peptide) it was “greater strength than intact, normally innervated MCLs”.

The values are drawn from US20060247156A1, “Use of neuropeptides for ligament, cartilage, and bone healing” (priority 2004, published 2006).
